We go through 33 compounds from patent US7189749B2, “Substituted phenoxyacetic acids” (The Institutes for Pharmaceutical Discovery LLC, priority 1999, dated 2007).

Like-named read-outs stand apart in the source and are kept apart here.

Test [1] deals with T1, human aldehyde reductase (hALR1) (Homo sapiens, UniProt P14550).
T1 sequence (P14550 1-325): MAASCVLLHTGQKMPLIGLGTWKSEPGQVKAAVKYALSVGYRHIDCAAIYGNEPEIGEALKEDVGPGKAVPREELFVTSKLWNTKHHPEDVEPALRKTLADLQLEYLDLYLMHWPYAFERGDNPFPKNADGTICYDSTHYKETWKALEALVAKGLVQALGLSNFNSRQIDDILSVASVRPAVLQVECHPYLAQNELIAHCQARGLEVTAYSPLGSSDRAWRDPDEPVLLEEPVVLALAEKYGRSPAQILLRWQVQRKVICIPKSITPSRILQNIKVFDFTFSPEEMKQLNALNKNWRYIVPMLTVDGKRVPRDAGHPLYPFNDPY
The experiment in a line: inhibition of human aldehyde reductase (hALR1), methods essentially of Ishii et al. It counts as biochemical. The settings on record: for IC50: concentration required to inhibit human aldehyde reductase activity by 50%; for hALR1/hALR2: ratio of hALR1 IC50 to hALR2 IC50, selectivity. Here is the method: In a second assay, a number of the same compounds were tested for their ability to inhibit aldehyde reductase (hAR1), a structurally related enzyme. […] Using this assay, the concentrations required to inhibit human aldehyde reductase activity by 50% (ICSO) were determined.
Since high potency of test compounds as inhibitors of aldose reductase is desirable, low hALR2 IC50 values are sought. On the other hand, high potency of test compounds as inhibitors of aldehyde reductase is undesirable, and high hALR1 IC50s values are sought. Accordingly, the hALR1/hALR2 ratio is used to determine the selectivity of the test compounds.

The target in test [2] is human aldose reductase (hALR2) (Homo sapiens, UniProt P15121). The experiment in a line: inhibition of human aldose reductase (hALR2), methods similar to Butera et al. It is filed as biochemical. The protocol:
Representative compounds of the invention were tested for their potency, selectivity and efficacy as inhibitors of human aldose reductase.

The mark [3] stands for this setting: concentration required to inhibit human aldose reductase activity by 50%.

For the compound `O=C(O)COc1cc(Cl)ccc1C(=O)NCc1ccc(Br)cc1F` [Example 1, [2-(4-Bromo-2-fluoro-benzylcarbamoyl)-5-chloro-phenoxy]-acetic acid], in test [1], the half-maximal inhibitory concentration (IC50) is 14000 nM and the hALR1/hALR2 came out at 470. Moreover, the midpoint of inhibition in test [2] (setting [3]), the IC50, lay at 30 nM.

In test [2] (setting [3]), `O=C(O)COc1cc(Cl)ccc1C(=O)NCc1cccc(C(F)(F)F)c1` [Example 4, [5-Chloro-2-(3-trifluoromethyl-benzylcarbamoyl)-phenoxy]-acetic acid] showed an IC50 of 39 nM. This lies in the double-digit nanomolar range. Take `O=C(O)COc1cc(Cl)ccc1C(=O)NCc1cccc([N+](=O)[O-])c1` [Example 5, [2-(3-Nitro-benzylcarbamoyl)-5-chloro-phenoxy]-acetic acid]: in test [1], the hALR1/hALR2 is listed as >4,200. The inhibition at 25 µM in test [1] (read-out: hALR1 (aldehyde) % inhibition @ 25 μM) was 19%. Besides, the IC50 in test [2] was 6 nM.

In test [2] (setting [3]), `O=C(O)COc1cc(Cl)ccc1C(=O)NCc1cc(F)cc(C(F)(F)F)c1` [Example 11, [5-Chloro-2-(3-fluoro-5-trifluoromethyl-benzylcarbamoyl)-phenoxy]-acetic acid] came in with an IC50 of 29 nM. For `O=C(O)COc1cc(Cl)ccc1C(=O)NCc1ccc(Cl)c(Cl)c1` [Example 14, [5-Chloro-2-(3,4-dichloro-benzylcarbamoyl)-phenoxy]-acetic acid], in test [1], the midpoint of inhibition, the IC50, lay at 18000 nM and the hALR1/hALR2 turned out to be 530. Also, in test [2] (setting [3]), half-maximal inhibition (IC50) was put at 34 nM. The matching figures for `O=C(O)COc1ccc(Cl)cc1C(=O)NCc1ccc(Br)cc1F` [Example 17, [2-(4-Bromo-2-fluoro-benzylcarbamoyl)-4-chloro-phenoxy]-acetic acid]: 18000 nM, 390 and 46 nM. The compound `O=C(O)COc1ccc(F)cc1C(=O)NCc1ccc(Br)cc1F` [Example 18, [2-(4-Bromo-2-fluoro-benzylcarbamoyl)-4-fluoro-phenoxy]-acetic acid] came in with a half-maximal inhibitory concentration (IC50) in test [2] (setting [3]) of 150 nM. Same read-out and setting: the value for `O=C(O)COc1ccc(Br)cc1C(=O)NCc1ccc(Br)cc1F` [Example 19, [4-Bromo-2-(4-bromo-2-fluoro-benzylcarbamoyl)-phenoxy]-acetic acid] was 64 nM.

`Cc1ccc(OCC(=O)O)c(C(=O)NCc2ccc(Br)cc2F)c1` [Example 20, [2-(4-Bromo-2-fluoro-benzylcarbamoyl)-4-methyl-phenoxy]-acetic acid]: in test [1], the half-inhibitory concentration (IC50) is 11000 nM and the hALR1/hALR2 stood at 160. This compound came in with a concentration for half-maximal inhibition (IC50) in test [2] (setting [3]) of 69 nM.

For the compound `O=C(O)COc1ccc([N+](=O)[O-])cc1C(=O)NCc1ccc(Br)cc1F` [Example 21, [2-(4-Bromo-2-fluoro-benzylcarbamoyl)-4-nitro-phenoxy]-acetic acid], half-maximal inhibition in test [2] (setting [3]) (IC50) was put at 200 nM.

Turning to `O=C(O)COc1ccccc1C(=O)NCc1ccc(Br)cc1F` [Example 23, [2-(4-Bromo-2-fluoro-benzylcarbamoyl)-phenoxy]-acetic acid], the half-inhibitory concentration (IC50) in test [2] (setting [3]) stood at 180 nM. Same read-out and setting: the value for `CSc1ccc(C(=O)NCc2ccc(Br)cc2F)c(OCC(=O)O)c1` [Example 24, [2-(4-Bromo-2-fluoro-benzylcarbamoyl)-5-methylsulfanyl-phenoxy]-acetic acid] was 83 nM.

On to `Cc1ccc(OCC(=O)O)c(C(=O)NCc2cccc([N+](=O)[O-])c2)c1` [Example 25, [2-(3-Nitro-benzylcarbamoyl)-4-methyl-phenoxy]-acetic acid], for which the hALR1/hALR2 in test [1] is recorded as >9,100. Besides, the inhibition at 100 µM in test [1] (read-out: hALR1 (aldehyde) % inhibition @ 100 μM) came out at 48%. The IC50 in test [2] (setting [3]) came out at 11 nM. In turn, `O=C(O)COc1ccc(OC(F)(F)F)cc1C(=O)NCc1cccc([N+](=O)[O-])c1` [Example 26, [2-(3-nitro-benzylcarbamoyl)-4-trifluoromethoxy-phenoxy]-acetic acid] gave a concentration for half-maximal inhibition (IC50) in test [2] (setting [3]) of 9 nM. With `O=C(O)COc1cc(F)ccc1C(=O)NCc1cccc([N+](=O)[O-])c1` [Example 27, [5-Fluoro-2-(3-nitro-benzylcarbamoyl)-phenoxy]-acetic acid], in test [1], the concentration for half-maximal inhibition (IC50) amounted to 34000 nM and the hALR1/hALR2 is 4,300. For the same compound, the IC50 in test [2] (setting [3]) turned out to be 8 nM. In the same order, the values of `O=C(O)COc1cc(F)ccc1C(=O)NCc1ccc(Br)cc1F` [Example 28, [2-(4-Bromo-2-fluoro-benzylcarbamoyl)-5-fluoro-phenoxy]-acetic acid] are 6600 nM, 120 and 55 nM. For the compound `Cc1ccc(CNC(=O)c2ccc(F)cc2OCC(=O)O)cc1[N+](=O)[O-]` [Example 29, [5-Fluoro-2-(4-methyl-3-nitro-benzylcarbamoyl)-phenoxy]-acetic acid], the half-maximal inhibitory concentration (IC50) in test [2] (setting [3]) amounted to 8 nM. In other words, the single-digit nanomolar range. `O=C(O)COc1cc(F)c(F)cc1C(=O)NCc1ccc(Br)cc1F` [Example 30, [2-(4-Bromo-2-fluoro-benzylcarbamoyl)-4,5-difluoro-phenoxy]-acetic acid]: in test [2] (setting [3]), the half-inhibitory concentration (IC50) was determined as 37 nM. As for `O=C(O)COc1cc(F)ccc1C(=S)NCc1cccc([N+](=O)[O-])c1` [Example 32, [5-Fluoro-2-(3-nitro-benzylthiocarbamoyl)-phenoxy]-acetic acid], in test [1], the IC50 is 35000 nM and the hALR1/hALR2 was 5,800. Also, the IC50 in test [2] (setting [3]) is 6 nM.

`O=C(O)COc1cc(F)ccc1C(=S)NCc1ccc(Br)cc1F` [Example 33, [2-(4-Bromo-2-fluoro-benzylthiocarbamoyl)-5-fluoro-phenoxy]-acetic acid]: in test [1], the IC50 worked out at 33000 nM and the hALR1/hALR2 was found to be 970. For the same compound, in test [2] (setting [3]), the 50% inhibitory concentration (IC50) came out at 34 nM. For `O=C(O)COc1ccc(Br)cc1C(=S)NCc1ccc(Br)cc1F` [Example 34, [4-Bromo-2-(4-bromo-2-fluoro-benzylthiocarbamoyl)-phenoxy]-acetic acid], the 50% inhibitory concentration (IC50) in test [2] (setting [3]) is 37 nM. That is a double-digit nanomolar value. On the same count and under the same terms, the value for `O=C(O)COc1ccc(OC(F)(F)F)cc1C(=S)NCc1cccc([N+](=O)[O-])c1` [Example 35, [2-(3-Nitro-benzylthiocarbamoyl)-4-trifluoromethoxy-phenoxy]-acetic acid] was 12 nM.

Turning to `O=C(O)COc1cc(F)c(F)cc1C(=S)NCc1ccc(Br)cc1F` [Example 36, [2-(4-Bromo-2-fluoro-benzylthiocarbamoyl)-4,5-difluoro-phenoxy]-acetic acid], the IC50 in test [2] (setting [3]) is 33 nM. `Cc1cc(C(=O)NCc2ccc(Br)cc2F)c(OCC(=O)O)cc1F` [Example 45, [2-(4-Bromo-2-fluoro-benzylcarbamoyl)-5-fluoro-4-methyl-phenoxy]-acetic acid]: in test [1], the concentration for half-maximal inhibition (IC50) was found to be 5800 nM and the hALR1/hALR2 amounted to 240. This compound also yielded a concentration for half-maximal inhibition (IC50) in test [2] (setting [3]) of 24 nM. The matching figures for `Cc1cc(C(=S)NCc2ccc(Br)cc2F)c(OCC(=O)O)cc1F` [Example 46, [2-(4-Bromo-2-fluoro-benzylthiocarbamoyl)-5-fluoro-4-methyl-phenoxy]-acetic acid]: 31000 nM, 1,300 and 24 nM. The compound `Cc1cc(C(=O)NCc2cccc([N+](=O)[O-])c2)c(OCC(=O)O)cc1F` [Example 47, [2-(3-Nitro-benzylcarbamoyl)-5-fluoro-4-methyl-phenoxy]-acetic acid] showed an IC50 in test [2] (setting [3]) of 8 nM. For `Cc1cc(C(=S)NCc2cccc([N+](=O)[O-])c2)c(OCC(=O)O)cc1F` [Example 48, [2-(3-Nitro-benzylthiocarbamoyl)-5-fluoro-4-methyl-phenoxy]-acetic acid], in test [2] (setting [3]), inhibition was half-maximal at 7 nM (IC50). Regarding `O=C(O)COc1cc(F)c(Br)cc1C(=O)NCc1cccc([N+](=O)[O-])c1` [Example 49, [4-Bromo-5-fluoro-2-(3-nitro-benzylcarbamoyl)-phenoxy]-acetic acid], the IC50 in test [1] amounted to 44000 nM; in test [2] (setting [3]), 6 nM. Also, in test [1], the hALR1/hALR2 is listed as 7,300.

In the case of `O=C(O)COc1cc(F)c(-c2ccccc2)cc1C(=O)NCc1cccc([N+](=O)[O-])c1` [Example 50, [5-(3-Nitro-benzylcarbamoyl)-2-fluoro-biphenyl-4-yloxy]-acetic acid], the IC50 turned out to be 14000 nM in test [1] and 7 nM in test [2] (setting [3]). Also, the hALR1/hALR2 in test [1] is 2,000. The matching figures for `O=C(O)COc1cc(F)c(-c2ccccc2)cc1C(=S)NCc1cccc([N+](=O)[O-])c1` [Example 51, [5-(3-Nitro-benzylthiocarbamoyl)-2-fluoro-biphenyl-4-yloxy]-acetic acid]: 12000 nM, 11 nM and 1,100. In test [2] (setting [3]), `N#Cc1cc(C(=O)NCc2cccc([N+](=O)[O-])c2)c(OCC(=O)O)cc1F` [Example 52, [2-(3-Nitro-benzylcarbamoyl)-4-cyano-5-fluoro-phenoxy]-acetic acid] displayed a 50% inhibitory concentration (IC50) of 7 nM. Regarding `O=C(O)COc1cc(F)c(N2CCOCC2)cc1C(=O)NCc1cccc([N+](=O)[O-])c1` [Example 53, [2-(3-Nitro-benzylcarbamoyl)-5-fluoro-4-morpholin-4-yl-phenoxy]-acetic acid], the IC50 in test [1] came out at 54000 nM; in test [2] (setting [3]), 7 nM.

As to `O=C(O)COc1cc(Cl)ccc1C(=O)NCc1nc2cc(C(F)(F)F)ccc2s1` [Example 57, {5-Chloro-2-[(5-trifluoromethyl-benzothiazol-2-ylmethyl)-carbamoyl]-phenoxy}-acetic acid], half-maximal inhibition in test [2] (setting [3]) (IC50) was put at 35 nM. That is a double-digit nanomolar value.
